What all share (type): functional
For test [1], the system named is Mus musculus. Description: Spermatogenic index (percent change from vehicle control) was calculated in Adult Male Swiss Mice at 21 (umol/kg) dose.
Test [2] has as its system Mus musculus. Description: Spermatogenic index (percent change from vehicle control) was calculated in Adult Male Swiss Mice at 6 (umol/kg) dose.
The subject of test [3] is Mus musculus. Description: Spermatogenic index (percent change from vehicle control) was calculated in Adult Male Swiss Mice at 62 (umol/kg) dose.
In test [4] the test system is Mus musculus. As to the kind of experiment: Spermatogenic index (percent change from vehicle control) was calculated in Adult Male Swiss Mice at 25 (umol/kg) dose.
Test [5] concerns Mus musculus. Description: Spermatogenic index (percent change from vehicle control) was calculated in Adult Male Swiss Mice at 8 (umol/kg) dose.
The subject of test [6] is Mus musculus. As to the kind of experiment: Spermatogenic index (percent change from vehicle control) was calculated in Adult Male Swiss Mice at 3 (umol/kg) dose.
Test [7] deals with Mus musculus. As to the kind of experiment: Spermatogenic index (percent change from vehicle control) was calculated in Adult Male Swiss Mice at 75 (umol/kg) dose.
In test [8] the test system is Mus musculus. Description: Spermatogenic index (percent change from vehicle control) was calculated in Adult Male Swiss Mice at 2 (umol/kg) dose.
Test [9] deals with Mus musculus. As to the kind of experiment: Spermatogenic index (percent change from vehicle control) was calculated in Adult Male Swiss Mice at 20 (umol/kg) dose.
In test [10] the test system is Mus musculus. Description: Spermatogenic index (percent change from vehicle control) was calculated in Adult Male Swiss Mice at 0.6 (umol/kg) dose.
The subject of test [11] is Mus musculus. Description: Spermatogenic index (percent change from vehicle control) was calculated in Adult Male Swiss Mice at 19 (umol/kg) dose.
Test [12] deals with Mus musculus. Description: Spermatogenic index (percent change from vehicle control) was calculated in Adult Male Swiss Mice at 7 (umol/kg) dose.
Test [13] concerns Mus musculus. As to the kind of experiment: Spermatogenic index (percent change from vehicle control) was calculated in Adult Male Swiss Mice 79 (umol/kg) dose.
The subject of test [14] is Mus musculus. Description: Spermatogenic index (percent change from vehicle control) was calculated in Adult Male Swiss Mice at 26 (umol/kg) dose.

As for `CCN1CC[C@H]2[C@H](c3ccc(C(=O)O)cc3)c3cc(C)c(Br)cc3[C@H]2C1`, the SI with Mus musculus [1] was -71%; in the test on Mus musculus [2], -69%; in the test on Mus musculus [3], -72%.
For the compound `CCN1CC[C@H]2[C@H](c3ccc(C(=O)OC)cc3)c3cc(C)ccc3[C@H]2C1`, the SI with Mus musculus [4] is given as -33%; in the test on Mus musculus [5] it was -2%; with Mus musculus [6], 3%; in the test with Mus musculus [7] it was -64%.
Consider `CCN1CC[C@H]2[C@H](c3ccc(C(=O)OC)cc3)c3cc(C)c(I)cc3[C@H]2C1` (stereo in doubt; 2b), for which the SI is recorded as -57% in the test with Mus musculus [8], -69% in the test on Mus musculus [2] and -74% in the test on Mus musculus [9].
For the compound `CCN1CC[C@H]2[C@H](c3ccc(C(=O)OC)cc3)c3cc(C)c(I)cc3[C@H]2C1` (stereo in doubt; (l)-2b), the SI is -34% with Mus musculus [10], -66% with Mus musculus [8], -72% with Mus musculus [11] and -71% with Mus musculus [2].
In the case of `CCN1CC[C@H]2[C@H](c3ccc(C(=O)O)cc3)c3cc(C)c(Cl)cc3[C@H]2C1`, the figures for the SI in the test on Mus musculus [4], in the test on Mus musculus [8] and in the test on Mus musculus [12] were -72%, -55% and -66%, respectively.
Regarding `CCN1CC[C@H]2[C@H](c3ccc(C(=O)O)cc3)c3cc(C)c(I)cc3[C@H]2C1`, the SI is -67% with Mus musculus [8], -66% with Mus musculus [2] and -76% with Mus musculus [9].
`CCN1CC[C@H]2[C@H](c3ccc(C(=O)O)cc3)c3cc(C)ccc3[C@H]2C1`: the SI with Mus musculus [13] is reported as -52%; in the test on Mus musculus [14], -24%.

Source of the values: ChEMBL document CHEMBL1130324, “Exceptionally potent antispermatogenic compounds from 8-halogenation of (4aRS,5SR,9bRS)-hexahydroindeno-[1,2-c]pyridines” (1997).
